Assay results published in patent US9636418B2 (priority 2013, dated 2017).
Values joined by “and” are separate entries in the source; they are usually repeats but may differ in a detail not shown here. Equal values may be shown once. Read-outs that look alike come from different tables or passages of the source.

Molecular target: hNav1.7 (Homo sapiens, UniProt Q15858)
Test: cell-based
Assay type: cell-based
[1] = PatchXpress, * = at high concentrations compound would wash off slowly or not at all, read-out: PX hNav1.7 Tonic IC50
[2] = PatchXpress, tonic block, read-out: PX hNav1.7 Tonic IC50

hNav1.7, sequence (Q15858 whole entry): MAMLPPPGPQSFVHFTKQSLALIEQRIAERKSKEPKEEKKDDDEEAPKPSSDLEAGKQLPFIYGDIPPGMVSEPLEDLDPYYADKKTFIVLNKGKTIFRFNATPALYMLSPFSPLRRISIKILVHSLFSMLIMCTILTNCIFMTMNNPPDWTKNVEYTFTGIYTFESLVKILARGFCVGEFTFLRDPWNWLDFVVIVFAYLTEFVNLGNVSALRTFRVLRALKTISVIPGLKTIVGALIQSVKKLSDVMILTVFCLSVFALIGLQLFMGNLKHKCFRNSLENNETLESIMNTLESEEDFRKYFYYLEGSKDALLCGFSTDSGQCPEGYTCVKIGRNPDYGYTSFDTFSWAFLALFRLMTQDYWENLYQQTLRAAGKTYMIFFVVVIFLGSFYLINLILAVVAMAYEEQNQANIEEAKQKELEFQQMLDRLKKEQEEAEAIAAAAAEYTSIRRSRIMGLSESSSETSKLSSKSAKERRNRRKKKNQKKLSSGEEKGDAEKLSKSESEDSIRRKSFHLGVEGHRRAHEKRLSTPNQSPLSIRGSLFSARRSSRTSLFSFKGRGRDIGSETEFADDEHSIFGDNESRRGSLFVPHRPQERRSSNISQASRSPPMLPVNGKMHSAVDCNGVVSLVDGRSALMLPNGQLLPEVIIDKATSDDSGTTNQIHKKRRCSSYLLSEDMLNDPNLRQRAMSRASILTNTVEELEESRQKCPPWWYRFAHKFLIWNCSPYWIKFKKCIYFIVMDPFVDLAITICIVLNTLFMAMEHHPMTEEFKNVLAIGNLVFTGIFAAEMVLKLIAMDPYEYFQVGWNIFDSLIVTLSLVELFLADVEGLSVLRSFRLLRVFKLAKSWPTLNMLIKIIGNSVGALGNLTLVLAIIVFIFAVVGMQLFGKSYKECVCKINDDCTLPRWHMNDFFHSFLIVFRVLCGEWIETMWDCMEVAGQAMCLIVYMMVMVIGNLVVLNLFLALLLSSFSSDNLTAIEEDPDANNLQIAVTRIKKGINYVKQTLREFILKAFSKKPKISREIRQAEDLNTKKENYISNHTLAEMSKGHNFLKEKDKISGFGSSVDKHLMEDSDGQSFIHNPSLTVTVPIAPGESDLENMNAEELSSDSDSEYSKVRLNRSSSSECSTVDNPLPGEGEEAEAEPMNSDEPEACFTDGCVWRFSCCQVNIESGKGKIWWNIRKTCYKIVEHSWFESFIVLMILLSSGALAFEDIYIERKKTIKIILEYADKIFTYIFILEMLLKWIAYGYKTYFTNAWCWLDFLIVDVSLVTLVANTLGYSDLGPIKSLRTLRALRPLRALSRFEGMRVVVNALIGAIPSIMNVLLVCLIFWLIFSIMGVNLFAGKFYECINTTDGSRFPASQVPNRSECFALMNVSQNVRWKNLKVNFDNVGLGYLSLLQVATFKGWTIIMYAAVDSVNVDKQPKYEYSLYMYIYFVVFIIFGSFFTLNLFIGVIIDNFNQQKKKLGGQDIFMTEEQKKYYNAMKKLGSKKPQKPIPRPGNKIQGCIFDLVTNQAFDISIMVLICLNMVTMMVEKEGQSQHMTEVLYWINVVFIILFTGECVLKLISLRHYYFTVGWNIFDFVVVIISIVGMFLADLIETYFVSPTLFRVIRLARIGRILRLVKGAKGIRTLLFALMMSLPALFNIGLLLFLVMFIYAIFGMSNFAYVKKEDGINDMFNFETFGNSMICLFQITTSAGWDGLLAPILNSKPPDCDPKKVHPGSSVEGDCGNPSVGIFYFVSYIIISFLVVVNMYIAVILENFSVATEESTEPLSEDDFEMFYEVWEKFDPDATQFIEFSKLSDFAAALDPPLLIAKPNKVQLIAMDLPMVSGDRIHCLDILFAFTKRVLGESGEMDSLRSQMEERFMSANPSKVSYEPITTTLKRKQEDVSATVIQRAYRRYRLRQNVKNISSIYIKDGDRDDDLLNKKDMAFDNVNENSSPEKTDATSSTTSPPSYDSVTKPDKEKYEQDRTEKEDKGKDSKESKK

Compound	IC50 [1] [pM]	IC50 [2]	other results
CCCC[C@@H]1NC(=O)[C@H](Cc2c[nH]c3ccccc23)NC(=O)[C@H](CCCCN)NC(=O)[C@H](CCC(N)=O)NC(=O)[C@@H](NC(=O)[C@H](Cc2ccc(O)cc2)NC(=O)[C@@H](N)C(C)C)CSSC[C@@H]2NC(=O)[C@@H]3CSSC[C@@H](C(=O)N[C@@H](CCCNC(=N)N)C(=O)N[C@@H](CCCCN)C(=O)N[C@H](C(=O)N[C@H](C(N)=O)[C@@H](C)CC)[C@@H](C)CC)NC(=O)[C@H](Cc4c[nH]c5ccccc45)NC(=O)[C@H](CC(C)C)NC(=O)[C@H](CCCCN)NC(=O)[C@H](CSSC[C@H](NC(=O)[C@H]([C@@H](C)O)NC(=O)[C@H](Cc4c[nH]c5ccccc45)NC1=O)C(=O)N[C@@H](CC(=O)O)C(=O)N[C@@H](CO)C(=O)N[C@@H](CCCCN)C(=O)N[C@@H](CCCNC(=N)N)C(=O)N[C@@H](C)C(=O)N3)NC(=O)[C@H](CCCNC(=N)N)NC(=O)[C@H](CC(C)C)NC(=O)CNC(=O)[C@H](CCC(=O)O)NC2=O [compound 363]	551		
CCCC[C@@H]1NC(=O)[C@H](Cc2c[nH]c3ccccc23)NC(=O)[C@H](CCCCN)NC(=O)[C@H](CCC(N)=O)NC(=O)[C@@H](NC(=O)[C@H](Cc2ccc(O)cc2)NC(=O)[C@@H](N)Cc2ccc(O)cc2)CSSC[C@@H]2NC(=O)[C@@H]3CSSC[C@@H](C(=O)N[C@@H](CCCNC(=N)N)C(=O)N[C@@H](CCCCN)C(=O)N[C@H](C(=O)N[C@H](C(N)=O)[C@@H](C)CC)[C@@H](C)CC)NC(=O)[C@H](Cc4c[nH]c5ccccc45)NC(=O)[C@H](CC(C)C)NC(=O)[C@H](CCCCN)NC(=O)[C@H](CSSC[C@H](NC(=O)[C@H]([C@@H](C)O)NC(=O)[C@H](Cc4c[nH]c5ccccc45)NC1=O)C(=O)N[C@@H](CC(=O)O)C(=O)N[C@@H](CO)C(=O)N[C@@H](CCCCN)C(=O)N[C@@H](CCCNC(=N)N)C(=O)N[C@@H](C)C(=O)N3)NC(=O)[C@H](CCCNC(=N)N)NC(=O)[C@H](CC(C)C)NC(=O)CNC(=O)[C@H](CCC(=O)O)NC2=O [compound 365]	372		
CCCC[C@@H]1NC(=O)[C@H](Cc2c[nH]c3ccccc23)NC(=O)[C@H](CCCCN)NC(=O)[C@H](CCC(N)=O)NC(=O)[C@@H](NC(=O)[C@H](Cc2ccc(O)cc2)NC(=O)[C@H](C)N)CSSC[C@@H]2NC(=O)[C@@H]3CSSC[C@@H](C(=O)N[C@@H](CCCNC(=N)N)C(=O)N[C@@H](CCCCN)C(=O)N[C@H](C(=O)N[C@H](C(N)=O)[C@@H](C)CC)[C@@H](C)CC)NC(=O)[C@H](Cc4c[nH]c5ccccc45)NC(=O)[C@H](CC(C)C)NC(=O)[C@H](CCCCN)NC(=O)[C@H](CSSC[C@H](NC(=O)[C@H]([C@@H](C)O)NC(=O)[C@H](Cc4c[nH]c5ccccc45)NC1=O)C(=O)N[C@@H](CC(=O)O)C(=O)N[C@@H](CO)C(=O)N[C@@H](CCCCN)C(=O)N[C@@H](CCCNC(=N)N)C(=O)N[C@@H](C)C(=O)N3)NC(=O)[C@H](CCCNC(=N)N)NC(=O)[C@H](CC(C)C)NC(=O)CNC(=O)[C@H](CCC(=O)O)NC2=O [compound 357]	307		
CCCC[C@@H]1NC(=O)[C@H](Cc2c[nH]c3ccccc23)NC(=O)[C@H](CCCCN)NC(=O)[C@H](CCC(N)=O)NC(=O)[C@@H](NC(=O)[C@H](Cc2ccc(O)cc2)NC(=O)[C@@H](N)[C@@H](C)CC)CSSC[C@@H]2NC(=O)[C@@H]3CSSC[C@@H](C(=O)N[C@@H](CCCNC(=N)N)C(=O)N[C@@H](CCCCN)C(=O)N[C@H](C(=O)N[C@H](C(N)=O)[C@@H](C)CC)[C@@H](C)CC)NC(=O)[C@H](Cc4c[nH]c5ccccc45)NC(=O)[C@H](CC(C)C)NC(=O)[C@H](CCCCN)NC(=O)[C@H](CSSC[C@H](NC(=O)[C@H]([C@@H](C)O)NC(=O)[C@H](Cc4c[nH]c5ccccc45)NC1=O)C(=O)N[C@@H](CC(=O)O)C(=O)N[C@@H](CO)C(=O)N[C@@H](CCCCN)C(=O)N[C@@H](CCCNC(=N)N)C(=O)N[C@@H](C)C(=O)N3)NC(=O)[C@H](CCCNC(=N)N)NC(=O)[C@H](CC(C)C)NC(=O)CNC(=O)[C@H](CCC(=O)O)NC2=O [compound 360]	519		
[Phe6,Atz(500 Da EtO-PEG*-{[Phe6,Atz13*]GpTx-1(1-34)})13]GpTx-1(1-34) [Homodimeric Conjugate No. 4]			Wash out: Yes; IC50 (read-out: Nav1.7 PX IC50): 19000 pM
C#CC[C@H](N)C(=O)NCCCC[C@@H]1NC(=O)[C@H](CCCNC(=N)N)NC(=O)[C@H](CCCCN)NC(=O)[C@H](CO)NC(=O)[C@H](CC(=O)O)NC(=O)[C@@H]2CSSC[C@@H]3NC(=O)[C@H](CCC(=O)O)NC(=O)[C@H](CC(C)C)NC(=O)CNC(=O)[C@H](CCC(=O)O)NC(=O)[C@H](CSSC[C@H](NC(=O)[C@H](Cc4ccc(O)cc4)NC(=O)[C@@H](N)CCC)C(=O)N[C@@H](CCC(N)=O)C(=O)N[C@@H](CCCCN)C(=O)N[C@@H](Cc4c[nH]c5ccccc45)C(=O)N[C@@H](CC(C)C)C(=O)N[C@@H](Cc4c[nH]c5ccccc45)C(=O)N[C@@H]([C@@H](C)O)C(=O)N2)NC(=O)[C@H](CSSC[C@@H](C(=O)N[C@@H](CCCNC(=N)N)C(=O)N[C@@H](CCCCN)C(=O)N[C@@H](Cc2ccc(O)cc2)C(=O)N[C@H](C(N)=O)[C@@H](C)CC)NC(=O)[C@H](Cc2c[nH]c4ccccc24)NC(=O)[C@H](CC(C)C)NC(=O)[C@H](CCCCN)NC3=O)NC1=O [compound 440]		1950 pM	
[1-Nal24]JzTx-V(1-29) [SEQ ID NO: 43]			hNav1.7 potency/activity compared with wild type JzTx-V: loses considerable activity against hNav1.7
CCCC[C@@H]1NC(=O)[C@H](Cc2c[nH]c3ccccc23)NC(=O)[C@H](CCCCN)NC(=O)[C@H](CCC(N)=O)NC(=O)[C@@H](NC(=O)[C@H](Cc2ccc(O)cc2)NC(=O)[C@@H]2CCCN2)CSSC[C@@H]2NC(=O)[C@@H]3CSSC[C@@H](C(=O)N[C@@H](CCCNC(=N)N)C(=O)N[C@@H](CCCCN)C(=O)N[C@H](C(=O)N[C@H](C(N)=O)[C@@H](C)CC)[C@@H](C)CC)NC(=O)[C@H](Cc4c[nH]c5ccccc45)NC(=O)[C@H](CC(C)C)NC(=O)[C@H](CCCCN)NC(=O)[C@H](CSSC[C@H](NC(=O)[C@H]([C@@H](C)O)NC(=O)[C@H](Cc4c[nH]c5ccccc45)NC1=O)C(=O)N[C@@H](CC(=O)O)C(=O)N[C@@H](CO)C(=O)N[C@@H](CCCCN)C(=O)N[C@@H](CCCNC(=N)N)C(=O)N[C@@H](C)C(=O)N3)NC(=O)[C@H](CCCNC(=N)N)NC(=O)[C@H](CC(C)C)NC(=O)CNC(=O)[C@H](CCC(=O)O)NC2=O [compound 362]	372		
C#CC[C@H](N)C(=O)NCCCC[C@@H]1NC(=O)[C@H](CCCNC(=N)N)NC(=O)[C@H](CCCCN)NC(=O)[C@H](CO)NC(=O)[C@H](CC(=O)O)NC(=O)[C@@H]2CSSC[C@@H]3NC(=O)[C@H](CCC(=O)O)NC(=O)[C@H](CC(C)C)NC(=O)CNC(=O)[C@H](CCC(=O)O)NC(=O)[C@H](CSSC[C@H](NC(=O)[C@H](Cc4ccc(O)cc4)NC(=O)[C@@H](N)CCC)C(=O)N[C@@H](CCC(N)=O)C(=O)N[C@@H](CCCCN)C(=O)N[C@@H](Cc4c[nH]c5ccccc45)C(=O)N[C@@H](CCCC)C(=O)N[C@@H](Cc4c[nH]c5ccccc45)C(=O)N[C@@H]([C@@H](C)O)C(=O)N2)NC(=O)[C@H](CSSC[C@@H](C(=O)N[C@@H](CCCNC(=N)N)C(=O)N[C@@H](CCCCN)C(=O)N[C@@H](Cc2ccc(O)cc2)C(=O)N[C@H](C(N)=O)[C@@H](C)CC)NC(=O)[C@H](Cc2c[nH]c4ccccc24)NC(=O)[C@H](CC(C)C)NC(=O)[C@H](CCCCN)NC3=O)NC1=O [compound 436]		2960 pM	
[1-Nal7]JzTx-V(1-29) [SEQ ID NO: 30]			hNav1.7 potency/activity compared with wild type JzTx-V: retained hNav1.7 activity similar to the wild type peptide
C=CC[C@H](N)C(=O)N[C@@H](Cc1ccc(O)cc1)C(=O)N[C@H]1CSSC[C@@H]2NC(=O)[C@@H]3CSSC[C@@H](C(=O)N[C@@H](CCCNC(=N)N)C(=O)N[C@@H](CCCCN)C(=O)N[C@H](C(=O)N[C@H](C(N)=O)[C@@H](C)CC)[C@@H](C)CC)NC(=O)[C@H](Cc4c[nH]c5ccccc45)NC(=O)[C@H](CC(C)C)NC(=O)[C@H](CCCCN)NC(=O)[C@H](CSSC[C@H](NC(=O)[C@H]([C@@H](C)O)NC(=O)[C@H](Cc4c[nH]c5ccccc45)NC(=O)[C@H](CCCC)NC(=O)[C@H](Cc4c[nH]c5ccccc45)NC(=O)[C@H](CCCCN)NC(=O)[C@H](CCC(N)=O)NC1=O)C(=O)N[C@@H](CC(=O)O)C(=O)N[C@@H](CO)C(=O)N[C@@H](CCCCN)C(=O)N[C@@H](CCCNC(=N)N)C(=O)N[C@@H](C)C(=O)N3)NC(=O)[C@H](CCCNC(=N)N)NC(=O)[C@H](CC(C)C)NC(=O)CNC(=O)[C@H](CCC(=O)O)NC2=O [compound 367]	488		
C#CC[C@H](N)C(=O)NCCCC[C@@H]1NC(=O)[C@H](CCCNC(=N)N)NC(=O)[C@H](CCCCN)NC(=O)[C@H](CO)NC(=O)[C@H](CC(=O)O)NC(=O)[C@@H]2CSSC[C@@H]3NC(=O)[C@H](CCC(=O)O)NC(=O)[C@H](CC(C)C)NC(=O)CNC(=O)[C@H](CCC(=O)O)NC(=O)[C@H](CSSC[C@H](NC(=O)[C@H](Cc4ccc(O)cc4)NC(=O)[C@@H](N)CCC)C(=O)N[C@@H](CCC(N)=O)C(=O)N[C@@H](CCCCN)C(=O)N[C@@H](Cc4c[nH]c5ccccc45)C(=O)N[C@@H](CCCC)C(=O)N[C@@H](Cc4c[nH]c5ccccc45)C(=O)N[C@@H]([C@@H](C)O)C(=O)N2)NC(=O)[C@H](CSSC[C@@H](C(=O)N[C@@H](CCCNC(=N)N)C(=O)N[C@@H](CCCCN)C(=O)N[C@H](C(=O)N[C@@H](Cc2c[nH]c4ccccc24)C(N)=O)[C@@H](C)CC)NC(=O)[C@H](Cc2c[nH]c4ccccc24)NC(=O)[C@H](CC(C)C)NC(=O)[C@H](CCCCN)NC3=O)NC1=O [compound 437]		9590 pM	
C#CC[C@H](N)C(=O)NCCCC[C@@H]1NC(=O)[C@H](CCCNC(=N)N)NC(=O)[C@H](CCCCN)NC(=O)[C@H](CO)NC(=O)[C@H](CC(=O)O)NC(=O)[C@@H]2CSSC[C@@H]3NC(=O)[C@H](CCCNC(=N)N)NC(=O)[C@H](CC(C)C)NC(=O)CNC(=O)[C@H](CCC(=O)O)NC(=O)[C@H](CSSC[C@H](NC(=O)[C@H](Cc4ccc(O)cc4)NC(=O)[C@@H](N)CCC)C(=O)N[C@@H](CCC(N)=O)C(=O)N[C@@H](CCCCN)C(=O)N[C@@H](Cc4c[nH]c5ccccc45)C(=O)N[C@@H](CC(C)C)C(=O)N[C@@H](Cc4c[nH]c5ccccc45)C(=O)N[C@@H]([C@@H](C)O)C(=O)N2)NC(=O)[C@H](CSSC[C@@H](C(=O)N[C@@H](CCCNC(=N)N)C(=O)N[C@@H](CCCCN)C(=O)N[C@@H](CCC(=O)O)C(=O)N[C@H](C(N)=O)[C@@H](C)CC)NC(=O)[C@H](Cc2c[nH]c4ccccc24)NC(=O)[C@H](CC(C)C)NC(=O)[C@H](CCCCN)NC3=O)NC1=O [compound 439]		1040 pM and 1370 pM and 384 pM and 612 pM	
